Assay results: patent publication US10533231B2, “Artificial bioluminescent enzyme” (NATIONAL INSTITUTE OF ADVANCED INDUSTRIAL SCIENCE AND …, priority 2012, dated 2020)
Residue numbers refer to the chain shown, from its start.

B1: ALuc26: artificial luciferase, SEQ ID NO: 28 (protein)
chain: MMGVKLIFAVLCVAVAQANATINENFEDIDLVAIGGSFADLETDLFTIVEDMNVISRDTDVDANRGGRGRRGKLPGKKLPLEVLKELEANAQKAGCTRGCLICLSHIKCTAKMKKWLPGRCESWEGDKETGQGGIGEAIVDIPEIPGFKNLAPMEQFIAQVDLCADCTTGCLKGLANVKCSNLLKKWLPSRCAGFANKIQAQVDTIKGLGGS
modifications: Synthetic Aluc26
B2: ALuc29: artificial luciferase, SEQ ID NO: 31 (protein)
chain: B1 chain with N150W, K179W, N182W, N197W
modifications: Synthetic ALuc29
B3: ALuc27: artificial luciferase, SEQ ID NO: 29 (protein)
chain: B1 chain with N150F, K179F, N182F, N197F
modifications: Synthetic ALuc27
B4: ALuc28: artificial luciferase, SEQ ID NO: 30 (protein)
chain: B1 chain with N150Y, K179Y, N182Y, N197Y
modifications: Synthetic ALuc28
B5: ALuc17: artificial luciferase, SEQ ID NO: 24 (protein)
chain: MMGIKVLFALICFALVQANPTENKDDIDIVGVEGKFGTTDLETDLFTIVEDMNVISRDTDVDANRADRGRRGKMPGKKLPKAVLIELEANAQKAGCHRGCLICLSHIKCTAKMKEWLPGRCESWGGDKETGQAGIVGAIVDIPEIPGFKDLEPMEQFIAQVDLCVDCTTGCLKGLANVKCSDLLKKWLPSRCATFASKIQAQVDKIKGAGGS
modifications: Synthetic ALuc17
B6: ALuc18: artificial luciferase, SEQ ID NO: 14 (protein)
chain: MMGIKVLFALICFALVQANPTENKDDIDIVGVEGKFGTTDLETDLFTIVEDMNVISRDTDVDANRADRGRRGHGGLPGKKMPLEVLLELEANAQRAGCTRGCLICLSKIKCTAKMKKWLPGRCESWAGDKETGQGGITEEETVDIPEIPGFKDLEPMEQFIAQVDLCVDCTTGCLKGLANVKCSDLLKKWLPSRCATFASKIQAQVDKIKGAGGS
modifications: Synthetic ALuc18
B7: ALuc21: artificial luciferase, SEQ ID NO: 26 (protein)
chain: MMGIKVLFALICFALVQANATINEEDIDLVAIGGSFATTDLETDLFTIVEDMNVISRDTDVDANRADRGRRGKLPGKKLPLEVLKELEANAQKAGCTRGCLICLSHIKCTAKMKKWLPGRCESWEGDKETGQGGIGEAIVDIPEIPGFKDLEPMEQFIAQVDLCVDCTTGCLKGLANVKCSDLLKKWLPSRCATFASKIQAQVDKIKGAGGS
modifications: Synthetic ALuc21
B8: ALuc19: artificial luciferase, SEQ ID NO: 25 (protein)
chain: MMGIKVLFALICFALVQANPTENKDDIDIVGVEGKFGTTDLETDLFTIVEDMNVISRDTDVDANRADRGRRGRKLPGKKLPKEVLKILEANAQRAGCHRGCLICLSHIKCTAKMKQWLPGRCESWEGDKETGQGGIGGPIVDIGVLGPEIPGFKDLEPMEQFIAQVDLCVDCTTGCLKGLANVKCSDLLKKWLPSRCATFASKIQAQVDKIKGAGGS
modifications: Synthetic ALuc19
B9: ALuc15: artificial luciferase, SEQ ID NO: 12 (protein)
chain: MMGIKVLFALICFALVQANPTENKDDIDIVGVEGKFGTTDLETDLFTIVEDMNVISRDTDVDANRADRGKLPGKKLPLEVLKELEANAQKAGCTRGCLICLSHIKCTAKMKKWLPGRCESWEGDKETGQGGIGEAIVDIPEIPGFKDLEPMEQFIAQVDLCVDCTTGCLKGLANVKCSDLLKKWLPSRCATFASKIQAQVDKIKGAGGS
modifications: Synthetic ALuc15
B10: ALuc10: artificial luciferase, SEQ ID NO: 11 (protein)
chain: B9 chain with G3E, K5Q, D60N, V61L, D62A, A63N, N64S, R65D
modifications: Synthetic ALuc10

The molecules below were run on artificial luciferase (ALuc) (assay: Effects of heavy metal ions as additive for assay buffer (Example 2-3)). Conditions: 1 ppm in HBSS buffer after C3 lysis.
Type: cell-based
Method: This example examined the effects of a heavy metal ion as an additive for an assay buffer (FIG. 25). […] After 16-hour incubation in a CO2 incubator, 50 μL of a C3 solution was added to each well to allow for cell lysis for 20 minutes. 1 ppm of each type of heavy metal ion shown in FIG. 25 and 50 μL of a substrate-containing HBSS buffer were added to the lysate simultaneously, and the relative luminescence intensities were immediately measured with an LAS-4000. After the substrate-containing assay buffer was further added, the luminescence at the 8- and 16-minute point was measured to examine the luminescence stability.

Row | comprehensive evaluation of luminescence intensity and stability | Molecule | effect of heavy metal additive on luminescence intensity
1 | excellent additives | [Fe+3] [Fe(III)] | suitable to be added to C3 and HBSS
2 | excellent additives | [Zn+2] [Zn(II)] | 
3 |  | [Ni+2] [Ni(II)] | significantly decrease the luminescence intensity
4 |  | [Cd+2] [Cd(II)] | significantly decrease the luminescence intensity
5 | excellent additives | [Al+3] [Al(III)] | suitable to be added to C3 and HBSS
6 |  | [Mg+2] [Mg(II)] | suitable to be added to C3 and HBSS
7 |  | [Co+2] [Co(II)] | significantly decrease the luminescence intensity
8 |  | [Ca+2] [Ca(II)] | suitable to be added to C3 and HBSS
9 | excellent additives | [Mo] [Mo(VI)] | 

Row | Molecule | comprehensive evaluation of luminescence intensity and stability | effect of heavy metal additive on luminescence intensity
10 | [Cu+2] [Cu(II)] | excellent additives | suitable to be added to C3 and HBSS

What follows are molecules tested on COS-7 cells (assay: Enzymatic activity confirmation of ALuc (section 3-1, 3-2)). Conditions: vs conventional copepod luciferases.
Type: cell-based, African monkey
Method: First, using a known lipid reagent for gene introduction, an expression vector encoding ALuc is introduced into African monkey-derived COS-7 cells; as a control, an expression vector having a known GLuc without any mutation into the cells is also introduced in the same manner. At a predetermined time (from 10 to 20 hours, for example, 16 hours) after the introduction of the vector, a cell lysate is prepared using a known lysis reagent.
Thereafter, the cell lysate is mixed with a known substrate solution containing coelenterazine, and its color intensity, temporal stability in luminescence, etc., are measured.
The luminescence intensity may be found by measuring the intensity at a specific wavelength using a known luminescence spectrophotometer after addition of a known substrate. By performing the measurement every minute, the temporal stability in luminescence can be evaluated. To measure a shift to a longer wavelength, scanning of the entire wavelength is necessary.

Row | Molecule | luminescence stability (general statement)
11 | B1 | remarkably stable luminescence signals
12 | B2 | remarkably stable luminescence signals
13 | B3 | remarkably stable luminescence signals
14 | B4 | remarkably stable luminescence signals
15 | B5 | remarkably stable luminescence signals
16 | B6 | remarkably stable luminescence signals
17 | B7 | remarkably stable luminescence signals
18 | B8 | remarkably stable luminescence signals
19 | B9 | remarkably stable luminescence signals

These molecules were tested on COS-7 cells (assay: Comparison of luminescence intensity of ALucs (Example 1-2)). Conditions: COS-7 cultured overnight, Promega assay solution, LAS-4000.
Type: cell-based, African green monkey
Source text: The artificial luciferase (ALuc) genes synthesized by the above process were subcloned into mammalian cell expression vectors (pcDNA3.1 (+)). Each expression vector was transfected with African green monkey kidney-derived COS-7 cells, and the luminescence intensity, luminescence stability, and red-shifted degree of artificial luciferases (ALucs) were compared (FIGS. 2 to 5).
First, the luminescence intensity of artificial luciferases (ALucs) was compared (FIG. 2). For the comparison, COS-7 cells containing a vector encoding each luciferase were cultured overnight, and then the relative luminescence intensity was measured by using an assay solution, which is a mixture of a cell lysis solution and a substrate, produced by Promega, and a luminescence image analyzer (LAS-4000).

Row | Molecule | luminescence intensity higher than that of conventional GLuc, Renilla luciferase and MpLuc4
20 | B6 | about 50 folds
21 | B9 | about 50 folds
22 | B10 | about 50 folds
